Columns and labels:
lymphocyte cells = experiment: Apoptosis: oligonucleosomal DNA fragmentation, DAPI staining and nick end labeling; format: cell-based; conditions: 20 μM Noscapine, 0 to 24 hr
Experimental: Oligonucleosomal fragmentation of genomic DNA was determined according to Walton, M. I. et. al., Cancer. Res. 53, 1853 (1993). An aliquot of 3.3×10^6 cells in 10 ml medium was incubated with 20 μM Noscapine ([…] DMSO solution) for different time periods ranging from 0 to 24 hr. At the end of incubation, cells were pelleted and washed twice with ice cold PBS, and lysed in 250 μl 1% (v/v) NP 40 detergent containing 0.5 mg/ml proteinase K in PBS solution on ice for 60 min. Samples were centrifuged, and the supernatants were removed and incubated with 5 μl 10 mg/ml RNase A at 37° C. for 40 min. An aliquot of 1 ml anhydrous ethanol was added, tubes were placed at −20° C. for 20 min., then centrifuged to pellet DNA. After the samples were dry, the same amount of DNA (10 μg) was electrophoresed at 80V for 3 hr. through a 2% agarose gel containing ethidium bromide in TAB buffer. DNA bands were visualized under […]. […]
Morphological changes in the nuclear chromatin of cells undergoing apoptosis were detected by staining with 4′,6-diamidino-2-phenylindole (DAPI). […] Following 15 min. incubation at room temperature, a 10 μl aliquot was placed on a glass slide, and 400 cells per slide were scored for the incidence of apoptotic chromatin changes with a fluorescence microscope. […] After the slides were rinsed with PBS for another 3 times, coverslips were mounted and analyzed with a light microscope.

solid lymphoid tumors = experiment: Apoptosis in solid lymphoid tumors induced in mice (H&E microscopy); format: in vivo; conditions: Haemotoxline and Eosine stained cells
bovine brain tubulin = bovine brain tubulin (Bos taurus, UniProt P81947+Q6B856); experiment: Microtubule assembly, turbidity at 350 nm; format: biochemical; conditions: 20 μM noscapine, G-PEM buffer, 37° C.
Experimental: Phosphocellulose purified bovine brain tubulin was employed throughout these biophysical experiments. Fluorescence titration for determining binding constants was performed according to Peyrot, V. et al., Biochemistry 31, 11125 (1992). […], at room temperature, 2 μM tubulin in 100 mM PIPES, 2 mM EGTA, 1 mM MgCl2 was excited at 278 nm, and the fluorescence emission spectra were recorded with bandwidths […]. The fluorescence emission intensity of noscapine at this excitation wavelength was negligible and at the concentration of noscapine used it gave no appreciable inner filter effect. The concentration of noscapine was raised in increments of 0.5 μM, until the decrease in the fluorescence intensity was saturated. The value of the dissociation constant and the number of sites were obtained from Scatchard plots using the equation, r/[L]free=n/K^d−r/Kd, where r is the ratio of the concentration of bound ligand to the total protein concentration and n is the number of binding sites. […] Microtubule assembly was recorded on a spectrophotometer with thermocontroler, The cuvettes (0.4 cm path) containing 100 mM PIPES, 2 mM EGTA, 1 mM MgCl2 and 1 mM GTP (G-PEM buffer), and 20 μM noscapine/DMSO were kept at room temperature before addition of tubulin and shifting to 37° C. […] The assembly was monitored by measuring the changes in turbidity at […]. intervals. […]

OVA [1] = experiment: OVA-specific immune responses of noscapine-treated tumor survivors after OVA in CFA; format: in vivo, B6 mice; conditions: for IFNγ / cytokine production by lymph node CD4+ T cells / OVA-specific antibody responses: tumor survivors vs control mice, ELISA
Experimental: (FIG. 2A) antibody responses were measured by ELISA with OVA coated microtiter plates,
(FIG. 2B) IFNγ production by lymphnode cells was measured by ELlSA by comparison with recombinant IFNγ and
(FIG. 2C) CTL responses were measured using ^51Cr labeled target cells.
Untreated, control B6 mice and noscapine treated mice whose tumors regressed, were injected with OVA in CFA to test whether the tumor had induced tolerance to OVA. […] Moreover, the OVA-specific CTL response of mice that recovered from the tumor was enhanced by 10- to 30-fold compared to the response of non-tumor bearing controls (FIG. 2C) (14).

OVA [2] = experiment: Immune response to OVA in CFA in mice on oral noscapine; format: in vivo, B6 mice
Experimental: On day 0 all mice were injected with 200 μg OVA in CFA in the foot pad. Mice were bled individually on day 18 and their sera tested for antibody to OVA by ELISA (FIG. 5A). The mice were sacrificed on day 21 and their spleen cells cultured with E.G7-OVA for 6 days and their cytolytic activity measured with ^51Cr labeled cells (FIG. 5B).
The inventors believe that the damage caused to the mitotic apparatus of dividing cells must be repaired by normal cells but not the tumor cells at the tumor suppressive doses. Alternatively, the tumor suppressive effects of Noscapine may be unrelated to the anti-mitotic effect of the drug.

bovine brain tubulin, sequence (P81947 whole entry): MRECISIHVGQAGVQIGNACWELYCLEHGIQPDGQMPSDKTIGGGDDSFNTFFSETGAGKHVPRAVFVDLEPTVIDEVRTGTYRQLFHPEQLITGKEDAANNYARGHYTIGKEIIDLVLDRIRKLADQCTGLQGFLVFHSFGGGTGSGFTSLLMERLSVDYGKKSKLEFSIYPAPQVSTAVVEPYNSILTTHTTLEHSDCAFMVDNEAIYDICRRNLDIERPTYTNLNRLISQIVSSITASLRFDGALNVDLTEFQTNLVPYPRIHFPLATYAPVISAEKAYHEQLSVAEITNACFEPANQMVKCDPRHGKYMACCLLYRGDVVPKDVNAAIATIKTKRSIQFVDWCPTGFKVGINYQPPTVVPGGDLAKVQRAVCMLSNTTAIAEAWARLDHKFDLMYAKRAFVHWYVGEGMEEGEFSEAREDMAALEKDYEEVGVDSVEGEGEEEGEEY
bovine brain tubulin, sequence (Q6B856 whole entry): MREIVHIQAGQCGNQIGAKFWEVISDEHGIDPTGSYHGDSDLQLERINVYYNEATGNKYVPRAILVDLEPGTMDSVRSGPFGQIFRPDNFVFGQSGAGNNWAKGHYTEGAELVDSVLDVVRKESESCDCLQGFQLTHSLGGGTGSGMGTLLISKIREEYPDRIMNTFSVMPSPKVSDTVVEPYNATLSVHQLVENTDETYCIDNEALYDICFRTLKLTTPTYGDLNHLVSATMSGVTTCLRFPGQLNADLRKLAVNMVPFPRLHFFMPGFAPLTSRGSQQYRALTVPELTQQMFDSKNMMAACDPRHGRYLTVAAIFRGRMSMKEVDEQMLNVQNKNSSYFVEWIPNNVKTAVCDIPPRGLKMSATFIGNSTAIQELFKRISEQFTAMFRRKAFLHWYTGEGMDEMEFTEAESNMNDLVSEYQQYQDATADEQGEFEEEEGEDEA

COc1ccc2c(c1OC)C(=O)O[C@@H]2[C@H]1c2c(cc3c(c2OC)OCO3)CCN1C [Noscapine]
DNA degradation (gel electrophoresis of fragmented genomic DNA, staining) (lymphocyte cells): progressive DNA degradation with increasing time of noscapine treatment | apoptotic morphologies in tumor cells (solid lymphoid tumors): many cells in noscapine treated mice with apoptotic morphologies | tubulin assembly (absorbance at 350 nm) (bovine brain tubulin): promotes tubulin assembly | CTL responses after immunization with OVA in CFA (OVA [1]; tumor survivors treated with Noscapine vs control mice, 51Cr labeled target cells): enhanced | IFNγ / cytokine production by lymph node CD4+ T cells (OVA [1]): indistinguishable from control mice | OVA-specific antibody responses (OVA [1]): indistinguishable from control mice | IFNγ / cytokine production by lymph node CD4+ T cells (OVA [1]; listed as noscapine): identical | OVA-specific antibody responses (OVA [1]; listed as noscapine): identical | immune response to OVA in CFA (OVA [2]; 1.5 mg noscapine/ml drinking water from day -7): no detectable adverse effect | primary antibody response (OVA [2]; oral noscapine, ELISA day 18): did not inhibit | CTL response (OVA [2]; oral noscapine, spleen cells day 21, 51Cr labeled cells): did not inhibit

— patent publication US7090853B2, “Noscapine derivatives as adjuvant compositions and methods of use thereof” (Emory University, priority 1999, dated 2006)
